Data as given in patent US20090075989A1, “NON-STEROIDAL PROGESTERONE RECEPTOR MODULATORS” (priority 2006, published 2009).

The compounds below were run against T1, progesterone receptor PR (PR-B) (Homo sapiens, UniProt P06401) (assay: Transactivation assay, antagonism on the progesterone receptor PR). Settings: transactivation test for antagonistic activity on (PR-B).
T1 sequence (P06401 1-933): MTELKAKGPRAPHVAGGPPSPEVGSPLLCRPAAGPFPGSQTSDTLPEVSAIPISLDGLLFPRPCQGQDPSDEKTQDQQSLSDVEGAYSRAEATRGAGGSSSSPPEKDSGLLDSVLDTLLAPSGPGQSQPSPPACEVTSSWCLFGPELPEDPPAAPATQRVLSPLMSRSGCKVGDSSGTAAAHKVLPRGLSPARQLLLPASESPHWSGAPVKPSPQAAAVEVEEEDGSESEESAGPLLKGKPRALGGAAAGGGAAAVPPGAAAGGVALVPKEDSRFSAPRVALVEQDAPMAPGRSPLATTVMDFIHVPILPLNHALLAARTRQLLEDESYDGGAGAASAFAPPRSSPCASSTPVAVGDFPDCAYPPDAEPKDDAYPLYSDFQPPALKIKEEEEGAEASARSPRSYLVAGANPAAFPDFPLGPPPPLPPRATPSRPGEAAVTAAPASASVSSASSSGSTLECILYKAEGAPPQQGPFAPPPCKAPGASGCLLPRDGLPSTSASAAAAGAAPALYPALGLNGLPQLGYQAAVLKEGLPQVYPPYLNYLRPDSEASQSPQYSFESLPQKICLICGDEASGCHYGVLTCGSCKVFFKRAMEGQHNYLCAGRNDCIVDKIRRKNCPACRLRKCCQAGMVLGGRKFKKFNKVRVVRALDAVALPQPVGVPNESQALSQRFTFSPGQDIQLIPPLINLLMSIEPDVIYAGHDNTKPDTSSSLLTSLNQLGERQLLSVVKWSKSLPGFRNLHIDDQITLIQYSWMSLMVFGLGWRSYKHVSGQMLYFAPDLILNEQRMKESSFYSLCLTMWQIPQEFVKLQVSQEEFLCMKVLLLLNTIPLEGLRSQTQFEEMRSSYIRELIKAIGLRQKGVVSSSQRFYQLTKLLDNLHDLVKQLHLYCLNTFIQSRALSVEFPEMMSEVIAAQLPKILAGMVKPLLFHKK
Format: cell-based
Method: Antagonism on the progesterone receptor PR
The transactivation assay is carried out as described in WO 02/054064.

| Structure (SMILES) | IC50 [nM] |
| --- | --- |
| Cc1noc(=O)c2ccc(NC(=O)C(O)(C#Cc3ccccc3)c3ccccc3)cc12 (racemic) [Example 1b, rac-6-[2,4-diphenyl-2-hydroxybut-3-ynoylamino]-4-methyl-2,3-benzoxazin-1-one] | 30 |
| Cc1noc(=O)c2ccc(NC(=O)C(O)(Cc3ccccc3)c3ccccc3)cc12 (racemic) [Example 5, rac-6-[2-hydroxy-2,3-diphenylpropionylamino]-4-methyl-2,3-benzoxazin-1-one] | 5 |
| Cc1noc(=O)c2ccc(NC(=O)C(O)(Cc3ccccc3)c3ccc([N+](=O)[O-])cc3)cc12 (racemic) [Example 10, rac-6-[2-hydroxy-2-(4-nitrophenyl)-3-phenylpropionylamino]-4-methyl-2,3-benzoxazin-1-one] | 5 |
| N#Cc1ccc(NC(=O)C(O)(Cc2ccccc2)c2ccccc2)cc1Cl (racemic) [Example 29b, rac-N-(3-chloro-4-cyanophenyl)-2-hydroxy-2,3-diphenylpropionamide] | 40 |
| N#Cc1ccc(NC(=O)C(O)(Cc2ccccc2)c2ccccc2)cc1C(F)(F)F (racemic) [Example 34b, rac-N-(4-cyano-3-trifluoromethylphenyl)-2-hydroxy-2,3-diphenylpropionamide] | 71 |
| Cc1noc(=O)c2ccc(NC(=O)C(O)(Cc3ccccc3)c3ccc(C(C)(C)C)cc3)cc12 (racemic) [Example 45c, rac-6-[2-hydroxy-2-(4-(1,1-dimethylethyl)phenyl)-3-phenylpropionylamino]-4-methyl-2,3-benzoxazin-1-one] | 3.2 |
| Cc1noc(=O)c2ccc(NC(=O)C(O)(Cc3ccccc3)c3ccc(N(C)C)cc3)cc12 (racemic) [Example 48d, rac-6-[2-hydroxy-2-(4-dimethylaminophenyl)-3-phenylpropionylamino]-4-methyl-2,3-benzoxazin-1-one] | 50 |
| CC(=O)c1ccc(C(O)(Cc2ccccc2)C(=O)Nc2ccc3c(=O)onc(C)c3c2)cc1 (racemic) [Example 55f, rac-6-[2-hydroxy-2-(4-acetylphenyl)-3-phenylpropionylamino]-4-methyl-2,3-benzoxazin-1-one] | 32 |
| Cc1noc(=O)c2ccc(NC(=O)C(O)(Cc3ccccc3)c3cccs3)cc12 (racemic) [Example 64b, rac-6-[2-hydroxy-2-(thiophen-2-yl)-3-phenylpropionylamino]-4-methyl-2,3-benzoxazin-1-one] | 8.9 |
| Cc1noc(=O)c2ccc(NC(=O)C(O)(Cc3ccccc3)c3ccc(-c4cccs4)cc3)cc12 (racemic) [Example 75, rac-6-[2-hydroxy-2-(4-thiophen-2-ylphenyl)-3-phenylpropionylamino]-4-methyl-2,3-benzoxazin-1-one] | 39.8 |
| COc1ccc(C#CC(O)(C(=O)Nc2ccc(C#N)c(Cl)c2)c2ccccc2)cc1 (racemic) [Example 80] | 40 |
